What was measured:
[1] = target: T1, recombinant human plasminogen activator inhibitor-1 (PAI-1) (Homo sapiens, UniProt P05121); assay: Primary Screen for the PAI-1 Inhibition (residual tPA activity, Spectrozyme-tPA chromogenic substrate); assay type: biochemical; conditions: 25 μM test compound
T1 construct: purchased Molecular Innovations, Royal Oak, Mich
Protocol: Primary Screen for the PAI-1 Inhibition
Test compounds are dissolved in DMSO at a final concentration of 10 mM, then diluted 100× in physiologic buffer. The inhibitory assay is initiated by the addition of the test compound (1-100 μM final concentration, maximum DMSO concentration of 0.2%) in a pH 6.6 buffer containing 140 nM recombinant human plasminogen activator inhibitor-1 (PAI-1; Molecular Innovations, Royal Oak, Mich.). Following a 1 hour incubation at room temperature, 70 nM of recombinant human tissue plasminogen activator (tPA) is added, and the combination of the test compound, PAI-1 and tPA is incubated for an additional 30 minutes. Following the second incubation, Spectrozyme-tPA (American Diagnostica, Greenwich, Conn.), a chromogenic substrate for tPA, is added and absorbance read at 405 nm at 0 and 60 minutes. Relative PAI-1 inhibition is equal to the residual tPA activity in the presence of the test compound and PAI-1. Control treatments include the complete inhibition of tPA by PAI-1 at the molar ratio employed (2:1), and the absence of any effect of the test compound on tPA alone.

T1 sequence (P05121 24-402): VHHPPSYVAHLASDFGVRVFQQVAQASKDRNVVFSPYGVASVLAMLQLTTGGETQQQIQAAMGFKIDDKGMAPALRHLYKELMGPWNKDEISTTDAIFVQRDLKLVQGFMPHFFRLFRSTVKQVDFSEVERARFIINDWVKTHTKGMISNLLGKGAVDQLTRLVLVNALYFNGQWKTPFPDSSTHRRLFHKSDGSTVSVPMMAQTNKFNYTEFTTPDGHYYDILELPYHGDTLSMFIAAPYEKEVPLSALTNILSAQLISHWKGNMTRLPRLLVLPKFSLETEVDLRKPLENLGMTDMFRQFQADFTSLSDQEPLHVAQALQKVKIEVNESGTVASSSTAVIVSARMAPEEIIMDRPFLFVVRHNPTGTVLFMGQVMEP

Molecule	inhibition at 25 µM [1]	melting point	% Inhibition @ 25 μM [1]
Cn1cc(C(=O)C(=O)O)c2ccc(-c3ccc(OC(F)(F)F)cc3)cc21 [Example 1, {1-Methyl-6-[4-(trifluoromethoxy)phenyl]-1H-indol-3-yl}(oxo)acetic acid]	15%	233 to 235 °C (dec.)	
CCn1cc(C(=O)C(=O)O)c2ccc(-c3ccc(OC(F)(F)F)cc3)cc21 [Example 3, {1-Ethyl-6-[4-(trifluoromethoxy)phenyl]-1H-indol-3-yl}(oxo)acetic acid]	24%	204 to 205 °C	
CCn1cc(C(=O)C(=O)O)c2ccc(-c3ccc(C(F)(F)F)cc3)cc21 [Example 4, {1-Ethyl-6-[4-(trifluoromethyl)phenyl]-1H-indol-3-yl}(oxo)acetic acid]	16%	247 to 248 °C	
O=C(O)C(=O)c1cn(Cc2ccccc2)c2cc(-c3ccc(C(F)(F)F)cc3)ccc12 [Example 6, {1-Benzyl-6-[4-(trifluoromethyl)phenyl]-1H-indol-3-yl}(oxo)acetic acid]	27%	223 to 224 °C (dec.)	
CC(C)(C)c1ccc(Cn2cc(C(=O)C(=O)O)c3ccc(-c4ccc(C(F)(F)F)cc4)cc32)cc1 [Example 7, {1-[4-(tert-Butyl)benzyl]-6-[4-(trifluoromethyl)phenyl]-1H-indol-3-yl}(oxo)acetic acid]	26%	205 to 206 °C (dec.)	
O=C(O)C(=O)c1cn(Cc2ccccc2)c2ccc(-c3ccc(C(F)(F)F)cc3)cc12 [Example 9, {1-Benzyl-5-[4-(trifluoromethyl)phenyl]-1H-indol-3-yl}(oxo)acetic acid]	40%	201 to 202 °C (dec.)	
Cn1cc(C(=O)C(=O)O)c2ccc(-c3ccc(C(C)(C)C)cc3)cc21 [Example 10, {6-[4-(tert-Butyl)phenyl]-1-methyl-1H-indol-3-yl}(oxo)acetic acid]	33%	201 to 202 °C (dec.)	
CC(=O)c1ccc(-c2ccc3c(c2)c(C(=O)C(=O)O)cn3Cc2ccccc2)cc1 [Example 11, [5-(4-Acetylphenyl)-1-benzyl-1H-indol-3-yl](oxo)acetic acid]	19%	213 to 214 °C (dec.)	
O=C(O)C(=O)c1cn(Cc2ccccc2)c2cccc(-c3ccc(C(F)(F)F)cc3)c12 [Example 13, {1-Benzyl-4-[4-(trifluoromethyl)phenyl]-1H-indol-3-yl}(oxo)acetic acid]	27%	183 to 184 °C	
CC(C)(C)c1ccc(-c2ccc3c(c2)c(C(=O)C(=O)O)cn3Cc2ccccc2)cc1 [Example 14, {1-Benzyl-5-[4-(tert-butyl)phenyl]-1H-indol-3-yl}(oxo)acetic acid]	55%	210 to 211 °C (dec.)	
O=C(O)C(=O)c1cn(Cc2ccccc2)c2cccc(-c3ccc(OC(F)(F)F)cc3)c12 [Example 20, {1-Benzyl-4-[4-(trifluoromethoxy)phenyl]-1H-indol-3-yl}(oxo)acetic acid]	14%		
O=C(O)C(=O)c1cn(Cc2ccccc2)c2cc(-c3ccccc3)ccc12 [Example 23, (1-Benzyl-6-phenyl-1H-indol-3-yl)(oxo)acetic acid]	40%		
O=C(O)C(=O)c1cn(Cc2ccccc2)c2ccc(-c3ccccc3)cc12 [Example 24, (1-Benzyl-5-phenyl-1H-indol-3-yl)(oxo)acetic acid]	47%	193 to 195 °C (dec.)	
CCCCn1cc(C(=O)C(=O)O)c2cc(-c3cccc(OC)c3)ccc21 [Example 31, [1-Butyl-5-(3-methoxyphenyl)-1H-indol-3-yl](oxo)acetic acid]	32%	108 to 109 °C	
CCCCn1cc(C(=O)C(=O)O)c2cc(-c3ccc(OC)cc3)ccc21 [Example 32, [1-Butyl-5-(4-methoxyphenyl)-1H-indol-3-yl](oxo)acetic acid]	28%	172 to 173 °C	
CC(C)(C)c1ccc(Cn2cc(C(=O)C(=O)O)c3cc(-c4ccc(Cl)cc4)ccc32)cc1 [Example 38, [1-(4-tert-Butylbenzyl)-5-(4-chlorophenyl)-1H-indol-3-yl](oxo)acetic acid]	14%	183 to 184 °C	
CC(=O)OCc1c(C(=O)C(=O)O)c2cc(-c3ccc(OC(F)(F)F)cc3)ccc2n1Cc1ccc(C)cc1 [Example 41, {2-[(Acetyloxy)methyl]-1-(4-methylbenzyl)-5-[4-(trifluoromethoxy)phenyl]-1H-indol-3-yl}(oxo)acetic acid]	13%	79 to 80 °C	
O=C(O)C(=O)c1cn(C2CCCC2)c2ccc(-c3cccc(Cl)c3)cc12 [Example 45, [5-(3-Chlorophenyl)-1-cyclopentyl-1H-indol-3-yl]-oxo-acetic acid]	45%		

Molecule	inhibition at 25 µM [1]	melting point	% Inhibition @ 25 μM [1]
O=C(O)C(=O)c1cn(CC2CCC2)c2ccc(-c3cccc(Cl)c3)cc12 [Example 46, [5-(3-chlorophenyl)-1-(cyclobutylmethyl)-1H-indol-3-yl](oxo)acetic acid]	45%		
O=C(O)C(=O)c1cn(C2CCCC2)c2ccc(-c3ccc(C(F)(F)F)cc3)cc12 [Example 49, [5-(4-trifluoromethylphenyl)-1-(cyclopentyl)-1H-indol-3-yl](oxo)acetic acid]	54%		
O=C(O)C(=O)c1cn(CC2CCC2)c2ccc(-c3ccc(C(F)(F)F)cc3)cc12 [Example 50, [5-(4-trifluoromethylphenyl)-1-(cyclobutylmethyl)-1H-indol-3-yl](oxo)acetic acid]	59%		
CC1CCC(n2cc(C(=O)C(=O)O)c3cc(-c4ccc(C(F)(F)F)cc4)ccc32)C1 (centres unmarked) [Example 51, [5-(4-trifluoromethylphenyl)-1-(3-methylcyclopentyl)-1H-indol-3-yl](oxo)acetic acid]	58%		
O=C(O)C(=O)c1cn(CC2CCCCC2)c2ccc(-c3ccc(C(F)(F)F)cc3)cc12 [Example 52, [5-(4-trifluoromethylphenyl)-1-(cyclohexylmethyl)-1H-indol-3-yl](oxo)acetic acid]	59%		
O=C(O)C(=O)c1cn(CCCC2CCCC2)c2ccc(-c3ccc(C(F)(F)F)cc3)cc12 [Example 53, [5-(4-trifluoromethylphenyl)-1-(cyclopentylpropyl)-1H-indol-3-yl](oxo)acetic acid]	67%		
O=C(O)C(=O)c1cn(C2CCCC2)c2ccc(-c3cccc(C(F)(F)F)c3)cc12 [Example 54, [5-(3-trifluoromethylphenyl)-1-(cyclopentyl)-1H-indol-3-yl](oxo)acetic acid]	46%		
O=C(O)C(=O)c1cn(CC2CCC2)c2ccc(-c3cccc(C(F)(F)F)c3)cc12 [Example 55, [5-(3-trifluoromethylphenyl)-1-(cyclobutylmethyl)-1H-indol-3-yl](oxo)acetic acid]	51%		
CC1CCC(n2cc(C(=O)C(=O)O)c3cc(-c4cccc(C(F)(F)F)c4)ccc32)C1 (centres unmarked) [Example 56, [5-(3-trifluoromethylphenyl)-1-(3-methylcyclopentyl)-1H-indol-3-yl](oxo)acetic acid]	54%		
O=C(O)C(=O)c1cn(CC2CCCCC2)c2ccc(-c3cccc(C(F)(F)F)c3)cc12 [Example 57, [5-(3-trifluoromethylphenyl)-1-(cyclohexylmethyl)-1H-indol-3-yl](oxo)acetic acid]	57%		
O=C(O)C(=O)c1cn(CCCC2CCCC2)c2ccc(-c3cccc(C(F)(F)F)c3)cc12 [Example 58, [5-(3-trifluoromethylphenyl)-1-(cyclopentylpropyl)-1H-indol-3-yl](oxo)acetic acid]	61%		
COc1ccc(-c2ccc3c(c2)c(C(=O)C(=O)O)cn3CC2CCCCC2)cc1 [Example 59, [5-(4-methoxyphenyl)-1-(cyclohexylmethyl)-1H-indol-3-yl](oxo)acetic acid]	58%		
Cn1cc(C(=O)O)c2ccc(-c3ccc(C(F)(F)F)cc3)cc21 [Example 60, 1-Methyl-6-(4-trifluoromethyl-phenyl)-1H-indole-3-carboxylic acid]	39%	237 to 239 °C (dec.)	
Cn1cc(C(=O)O)c2ccc(-c3ccc(C(C)(C)C)cc3)cc21 [Example 61, 6-(4-tert-Butyl-phenyl)-1-methyl-1H-indole-3-carboxylic acid]	28%	236 to 238 °C (dec.)	
Cn1cc(CC(=O)O)c2cc(-c3ccc(C(F)(F)F)cc3)ccc21 [Example 63, [1-Methyl-5-(4-trifluoromethyl-phenyl)-1H-indol-3-yl]-acetic acid]		167 to 168 °C	
Cc1cccc(-c2ccc3c(c2)c(CC(=O)O)cn3Cc2ccc(C(C)(C)C)cc2)c1 [Example 64, 2-[1-[4-(tert-Butyl)benzyl]-5-(3-methylphenyl)-1H-indol-3-yl]-acetic acid]		91 to 92 °C	
Cc1ccc(Cn2cc(CC(=O)O)c3cc(-c4ccc(OC(F)(F)F)cc4)ccc32)cc1 [Example 65, {1-(4-Methylbenzyl)-5-[4-(trifluoromethoxy)phenyl]-1H-indol-3-yl}acetic acid]		62 to 63 °C	
[5-(3-chlorophenyl)-1-(3-methylcyclopropyl)-1H-indol-3-yl](oxo)acetic acid [Example 47]			51%

Reference: patent publication US7368471B2, “Substituted indole acid derivatives as inhibitors of plasminogen activator inhibitor-1 (PAI-1)” (Wyeth, priority 2001, dated 2008)
